How the values were obtained:
TLR4 = biological target: T1, TLR4 (Mus musculus, UniProt Q9QUK6); experiment: RAW264.7 cell nitric oxide TLR selectivity assay (LPS); assay type: cell-based; details: 27 μM
T1 construct: endogenous in cells; host or cells: RAW 264.7
T1 sequence (Q9QUK6 26-835): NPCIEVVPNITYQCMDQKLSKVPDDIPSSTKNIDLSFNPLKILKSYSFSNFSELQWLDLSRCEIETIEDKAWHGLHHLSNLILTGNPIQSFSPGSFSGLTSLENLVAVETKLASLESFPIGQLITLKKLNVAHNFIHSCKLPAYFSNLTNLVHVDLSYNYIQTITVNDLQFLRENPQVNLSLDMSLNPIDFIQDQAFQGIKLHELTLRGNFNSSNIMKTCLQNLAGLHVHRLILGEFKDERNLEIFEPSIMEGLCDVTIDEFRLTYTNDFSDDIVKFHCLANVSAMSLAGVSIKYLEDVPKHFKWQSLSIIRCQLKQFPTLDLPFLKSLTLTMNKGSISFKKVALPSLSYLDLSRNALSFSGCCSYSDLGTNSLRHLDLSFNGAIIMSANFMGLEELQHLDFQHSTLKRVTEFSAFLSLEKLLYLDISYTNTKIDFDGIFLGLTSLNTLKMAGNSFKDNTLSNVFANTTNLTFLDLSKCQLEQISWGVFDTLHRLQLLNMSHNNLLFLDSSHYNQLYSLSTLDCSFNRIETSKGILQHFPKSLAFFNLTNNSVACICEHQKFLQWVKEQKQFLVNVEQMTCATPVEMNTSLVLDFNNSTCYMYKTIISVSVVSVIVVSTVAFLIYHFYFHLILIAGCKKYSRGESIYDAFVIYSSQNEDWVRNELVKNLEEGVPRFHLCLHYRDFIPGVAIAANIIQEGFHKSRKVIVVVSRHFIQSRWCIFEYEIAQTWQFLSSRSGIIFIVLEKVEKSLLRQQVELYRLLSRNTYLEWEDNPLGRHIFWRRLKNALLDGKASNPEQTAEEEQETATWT
T1 sequence (Q9JHF9 19-160 partner): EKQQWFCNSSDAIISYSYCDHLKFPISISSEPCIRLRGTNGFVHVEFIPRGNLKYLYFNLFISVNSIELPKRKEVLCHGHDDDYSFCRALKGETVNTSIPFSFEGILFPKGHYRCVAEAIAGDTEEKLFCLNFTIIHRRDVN

TLR2/6 = biological target: T2, TLR2/6 (Mus musculus, UniProt Q9EPW9+Q9QUN7); experiment: RAW264.7 cell nitric oxide TLR selectivity assay (FSL-1); assay type: cell-based; details: 27 μM
T2 construct: endogenous in cells; host or cells: RAW 264.7
T2 sequence (Q9QUN7 25-784): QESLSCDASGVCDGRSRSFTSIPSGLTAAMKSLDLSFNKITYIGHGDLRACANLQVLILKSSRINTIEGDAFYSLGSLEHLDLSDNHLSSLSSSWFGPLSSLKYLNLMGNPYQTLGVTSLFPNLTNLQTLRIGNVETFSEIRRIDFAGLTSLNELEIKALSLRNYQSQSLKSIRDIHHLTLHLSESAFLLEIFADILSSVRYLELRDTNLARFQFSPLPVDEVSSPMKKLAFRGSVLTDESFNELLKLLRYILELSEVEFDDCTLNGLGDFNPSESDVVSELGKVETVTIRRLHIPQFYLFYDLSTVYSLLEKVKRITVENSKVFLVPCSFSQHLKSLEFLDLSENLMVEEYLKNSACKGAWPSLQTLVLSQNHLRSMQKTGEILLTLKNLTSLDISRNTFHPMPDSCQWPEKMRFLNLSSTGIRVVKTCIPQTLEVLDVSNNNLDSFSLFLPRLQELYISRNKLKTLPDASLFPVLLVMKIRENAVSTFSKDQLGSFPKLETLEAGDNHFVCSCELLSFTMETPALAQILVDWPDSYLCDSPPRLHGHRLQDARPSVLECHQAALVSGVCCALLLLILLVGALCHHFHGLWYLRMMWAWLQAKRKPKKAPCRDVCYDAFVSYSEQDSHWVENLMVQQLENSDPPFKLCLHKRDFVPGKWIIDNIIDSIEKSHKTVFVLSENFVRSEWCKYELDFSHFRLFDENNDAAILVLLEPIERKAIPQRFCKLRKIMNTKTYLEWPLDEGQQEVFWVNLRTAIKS
T2 sequence (Q9EPW9 28-795): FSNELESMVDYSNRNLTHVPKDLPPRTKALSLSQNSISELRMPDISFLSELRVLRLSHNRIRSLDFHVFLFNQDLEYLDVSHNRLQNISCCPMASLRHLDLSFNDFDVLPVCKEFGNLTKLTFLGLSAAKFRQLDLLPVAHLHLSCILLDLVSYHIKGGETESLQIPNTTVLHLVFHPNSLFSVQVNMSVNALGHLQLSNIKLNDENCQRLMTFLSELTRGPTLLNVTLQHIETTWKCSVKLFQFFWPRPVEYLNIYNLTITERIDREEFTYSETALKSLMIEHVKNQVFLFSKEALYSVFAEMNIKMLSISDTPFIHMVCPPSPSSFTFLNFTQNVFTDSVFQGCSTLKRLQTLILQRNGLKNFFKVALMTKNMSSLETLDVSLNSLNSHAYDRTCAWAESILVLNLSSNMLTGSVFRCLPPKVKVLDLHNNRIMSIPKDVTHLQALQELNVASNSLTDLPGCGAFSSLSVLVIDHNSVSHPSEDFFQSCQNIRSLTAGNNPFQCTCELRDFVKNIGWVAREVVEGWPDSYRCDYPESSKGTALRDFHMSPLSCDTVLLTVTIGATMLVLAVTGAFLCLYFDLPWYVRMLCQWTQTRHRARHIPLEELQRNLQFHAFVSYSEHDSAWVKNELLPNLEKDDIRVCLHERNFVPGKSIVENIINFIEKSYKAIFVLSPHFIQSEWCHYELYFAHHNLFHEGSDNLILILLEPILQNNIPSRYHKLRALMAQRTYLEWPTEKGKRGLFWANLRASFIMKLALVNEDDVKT

TLR7 = biological target: T3, TLR7 (Mus musculus, UniProt P58681); experiment: RAW264.7 cell nitric oxide TLR selectivity assay (R848); assay type: cell-based; details: 27 μM
T3 construct: endogenous in cells; host or cells: RAW 264.7
T3 sequence (P58681 27-1050): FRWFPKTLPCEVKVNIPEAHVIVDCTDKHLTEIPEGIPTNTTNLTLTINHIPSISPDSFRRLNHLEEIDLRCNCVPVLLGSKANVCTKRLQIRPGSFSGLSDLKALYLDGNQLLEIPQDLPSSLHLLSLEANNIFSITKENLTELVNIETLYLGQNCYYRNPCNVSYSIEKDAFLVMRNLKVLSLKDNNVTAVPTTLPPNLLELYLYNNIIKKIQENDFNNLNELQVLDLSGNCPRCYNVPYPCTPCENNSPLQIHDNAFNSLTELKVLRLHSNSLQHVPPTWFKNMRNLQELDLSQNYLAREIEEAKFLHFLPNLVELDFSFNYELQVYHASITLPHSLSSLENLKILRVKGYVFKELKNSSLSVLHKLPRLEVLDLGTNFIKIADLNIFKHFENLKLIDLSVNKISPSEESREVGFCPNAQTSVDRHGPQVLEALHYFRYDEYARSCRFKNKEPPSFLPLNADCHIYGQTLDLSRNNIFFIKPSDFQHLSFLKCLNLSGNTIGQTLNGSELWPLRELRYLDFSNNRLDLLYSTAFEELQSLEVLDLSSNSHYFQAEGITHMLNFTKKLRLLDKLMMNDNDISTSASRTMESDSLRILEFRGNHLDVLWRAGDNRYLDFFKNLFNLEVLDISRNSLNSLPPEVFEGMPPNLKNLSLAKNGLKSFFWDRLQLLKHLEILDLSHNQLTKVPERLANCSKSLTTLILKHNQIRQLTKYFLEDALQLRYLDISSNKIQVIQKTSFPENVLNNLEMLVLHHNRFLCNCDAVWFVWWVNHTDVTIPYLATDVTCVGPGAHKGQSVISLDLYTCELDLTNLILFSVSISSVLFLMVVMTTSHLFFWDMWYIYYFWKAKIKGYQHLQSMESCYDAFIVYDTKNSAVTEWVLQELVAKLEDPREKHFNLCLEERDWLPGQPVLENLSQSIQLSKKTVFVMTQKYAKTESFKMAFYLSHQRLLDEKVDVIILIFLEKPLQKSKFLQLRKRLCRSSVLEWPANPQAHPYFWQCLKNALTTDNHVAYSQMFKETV

RAW 264.7 cells = experiment: WST-1 cytotoxicity assay; assay type: cell-based, Mouse; details: WST-1 methodology; different concentrations
Experimental: This assay was conducted in a 96-well plate with 5,000 cells in 100 μL media (RPMI 1640 medium, supplemented with 10% FBS, penicillin (100 U/mL) and streptomycin ([…])) per well. Eight wells were left empty for blank controls. The plates were incubated (37° C., 5% CO2) overnight to allow the cells to attach to the wells. WST-1 proliferation reagent (Roche) was added to the cells (10 μL per well) and continued to incubate for 1-2 h at 37° C. Plates were checked visually by comparing the colour of wells with media without cells (colour remained pink) with wells contained untreated cells (colour is orange). When a clear difference could be seen by naked eye, results were read by spectrophotometer at 490 nm. Cytotoxicity (%) was determined using the following formula: Cytotoxicity (%)=(1−[Compounds (OD490)−Background (OD490)]/[Control (OD490)−Background (OD490)])×100.

[1] = test system: XMRV-induced IP-10/CXCL10 production; experiment: XMRV-induced IP-10 mRNA (RT-PCR) in LNCaP cells; assay type: cell-based, human

O=C(N[C@H](Cc1ccccc1)C(=O)O)c1sc2cc(F)ccc2c1Cl [Compound 4a, (R)-2-(3-chloro-6-fluorobenzo[b]thiophene-2-carboxamido)-3-phenylpropanoic acid]
effect on TLR4 signaling (TLR4): without significantly affecting other TLRs | effect on TLR2/6 signaling (TLR2/6): without significantly affecting other TLRs | effect on TLR7 signaling (TLR7): without significantly affecting other TLRs | toxicity in RAW 264.7 cells (RAW 264.7 cells): did not show any significant toxicity | XMRV-induced IP-10 production ([1]; 50 μM, RT-PCR of IP-10 mRNA): inhibits XMRV-induced IP-10 production | XMRV-induced IP-10/CXCL10 production ([1]; 10 and 25 μM, RT-PCR): inhibition of XMRV-induced IP-10/CXCL10 production

From patent US9409880B2, “Modulators of TLR3/dsRNA complex and uses thereof” (The Regents of the University of Colorado, a body corporate, priority 2011, dated 2016)
